Reference: patent publication US20030109418A1, “Methods for identifying compounds for inhibition of neoplastic lesions, and pharmaceutical compositions containing such compounds” (priority 1999, published 2003)
Read-outs that look alike come from different tables or passages of the source.

Legend:
[1] = system: HT-29 colon adenocarcinoma cells; test: Apoptosis by DNA fragmentation assay in HT-29; format: cell-based, human; as to Apoptosis: key: −: Not active; +: Slightly active; ++: Moderately active; +++: Strongly active; ++++: Highly active
[2] = system: premalignant lesions in mouse mammary gland organ culture; test: Mammary gland organ culture model; format: cell-based; conditions: qualitative activity profile; also: key: −: Not active; +: Slightly active; ++: Moderately active; +++: Strongly active; ++++: Highly active
Description: Test compounds identified by the above methods can be tested for antineoplastic activity by their ability to inhibit the incidence of pre-neoplastic lesions in a mammary gland organ culture system. This mouse mammary gland organ culture technique has been successfully used by other investigators to study the effects of known antineoplastic agents such as certain NSAIDs, retinoids, tamoxifen, selenium, and certain natural products, and is useful for validation of the screening method of the present invention.
For example, female BALB/c mice can be treated with a combination of estradiol and progesterone daily, in order to prime the glands to be responsive to hormones in vitro. The animals are sacrificed, and thoracic mammary glands are excised aseptically and incubated for ten days in growth media supplemented with insulin, prolactin, hydrocortisone, and aldosterone. DMBA (7,12-dimethylbenz(a)anthracene) is added to medium to induce the formation of premalignant lesions. Fully developed glands are then deprived of prolactin, hydrocortisone, and aldosterone, resulting in the regression of the glands but not the pre-malignant lesions.
The test compound is dissolved in DMSO and added to the culture media for the duration of the culture period. At the end of the culture period, the glands are fixed in 10% formalin, stained with alum carmine, and mounted on glass slides. The incidence of forming mammary lesions is the ratio of the glands with mammary lesions to […]. The incidence of mammary lesions in test compound treated glands is compared with that of the untreated glands.
The extent of the area occupied by the mammary lesions can be quantitated by projecting an image of the gland onto a digitation pad. The area covered by the gland is traced on the pad and considered as 100% of the area. The space covered by each of the non-regressed structures is also outlined on the digitization pad and quantitated by the computer.
Mammary gland organ culture experiment were performed as previously described (Mehta and Moon, Cancer Research, 46: 5832-5835, 1986). […] The data support the hypothesis that cyclooxygenase inhibition is not necessary for the anti-neoplastic properties of desired compounds.

[3] = system: HT-29 human colon carcinoma cell line; test: Growth inhibition, SRB assay, HT-29; format: cell-based; parameters: Growth Inhibition: key to the marks not given beside the values
[4] = target: T1, purified cyclooxygenase (Type 1, COX-I) from ram seminal vesicles (Ovis aries, UniProt P05979); test: COX inhibition assay, purified cyclooxygenase; format: biochemical; conditions: for COX Inhibition: qualitative activity profile; for inhibition at 100 µM: read-out: Cyclooxygenase inhibitory activity, % Inhibition at 100 μM
T1 construct: using purified cyclooxygenase from ram seminal vesicles as described previously; tissue Cayman Chemical, Ann Arbor, Mich; (named in the general protocol only); host or cells: ram seminal vesicles
T1 sequence (P05979 25-600): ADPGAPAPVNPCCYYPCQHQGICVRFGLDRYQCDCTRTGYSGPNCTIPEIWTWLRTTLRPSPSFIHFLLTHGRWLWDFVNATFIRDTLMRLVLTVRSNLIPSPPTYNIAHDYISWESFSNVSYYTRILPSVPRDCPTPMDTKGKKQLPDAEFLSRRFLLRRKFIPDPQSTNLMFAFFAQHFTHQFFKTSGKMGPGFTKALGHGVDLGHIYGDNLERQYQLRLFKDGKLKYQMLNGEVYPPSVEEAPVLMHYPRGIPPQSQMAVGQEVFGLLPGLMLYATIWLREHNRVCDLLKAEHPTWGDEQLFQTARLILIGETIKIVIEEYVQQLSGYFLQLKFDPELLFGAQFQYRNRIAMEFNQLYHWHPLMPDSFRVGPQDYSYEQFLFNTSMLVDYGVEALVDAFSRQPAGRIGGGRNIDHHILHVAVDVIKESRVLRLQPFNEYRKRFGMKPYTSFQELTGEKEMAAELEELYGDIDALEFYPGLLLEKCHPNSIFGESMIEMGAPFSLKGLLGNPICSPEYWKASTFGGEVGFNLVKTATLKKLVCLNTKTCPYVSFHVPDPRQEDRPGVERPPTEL

[5] = system: cGMP PDE purified from human colon HT-29 cultured tumor cells; test: cGMP PDE inhibition assay; format: biochemical; conditions: for PDE Inhibition: qualitative activity profile; for IC50: read-out: IC50 for inhibition of cGMP PDE, HT-29 cell enzyme
[6] = system: SW-480 colon adenocarcinoma cells
[7] = target: T2, PDE peak A (PDE5) from SW480 cells (Homo sapiens, UniProt O76074); test: cGMP hydrolysis inhibition, PDE peak A from SW480; format: biochemical
T2 construct: endogenous in cells; host or cells: SW480 colon cancer cells, DEAE-Trisacryl M fraction

[8] = target: novel cGMP-specific PDE peak B from SW480 cells (Homo sapiens); test: cGMP hydrolysis inhibition, novel PDE peak B (Section IA) from SW480; format: biochemical; conditions: Section IA Peak B, cGMP hydrolysis, 0.25 μM 3H-cGMP
[9] = target: T3, classic PDE2 (Peak B) from SW480 (Homo sapiens, UniProt O00408); test: Inhibition of classic PDE2 Peak B isolated with ethylene glycol buffers; format: biochemical
T3 construct: endogenous in cells; host or cells: SW480 cells, non-FPLC DEAE column with 30% ethylene glycol buffers
Description: A second method used to isolate classic PDE2 from SW480 was done using a non-FPLC DEAE column procedure described above (see Section IA) with the modification that the buffers contained 30% ethylene glycol, 10 mM TLCK and 3.6 mM β-mercaptoethanol. The addition of these reagents to the buffers causes a shift in the elution profile (see FIG. 25) from low to high sodium acetate so that peak A moves from 40 to 150 mM, peak B from 75 to 280 mM and peak C from 200 to 500 mM Na acetate (see FIG. 25).

[10] = system: SW-480 colon adenocarcinoma cells; test: Apoptosis fold induction protocol (DNA fragmentation ELISA); conditions: cell line not given
[11] = target: T4, cGMP binding sites of the GST-cGB-PDE5 protein (Homo sapiens, UniProt O76074); test: cGMP binding assay with GST-cGB-PDE5 fusion protein; conditions: 3H-cGMP 2 μM
T4 construct: made in house; host or cells: E. coli BL21 (DE3)

[12] = system: PDE4 purified from human colon HT-29 cultured tumor cells; test: PDE4 inhibition assay; format: biochemical; conditions: HT-29 cell enzyme
[13] = system: peak B's from SW480, HTB-26, and LnCAP; test: cGMP PDE activity of peak B's isolated by FPLC; format: biochemical; conditions: 100 nM inhibitor
Description: The novel Peak B was also isolated from two other neoplastic cell lines, a breast cancer cell line, HTB-26 and a prostate cancer cell line, LnCAP by a procedure similar to the one above used to isolate it from SW480. The protocol was modified in several respects. To provide even greater reproducibility to allow comparison of different cell lines, a Pharmacia AKTA FPLC was used to control sample loading and elution on an 18 mL DEAE TrisAcryl M column. SW840 was run by this same procedure multiple times to provide a reference of peak B. 200-400 million cells of SW480 were used for the profiles. 70 million cells of LnCAP were used for a profile (see FIGS. 22 and 23), and in a separate experiment 32 million cells of HTB-26 were used for a profile (see FIGS. 20 and 21). After re-suspending cells in homogenization buffer, samples were manually homogenized. FPLC buffer A was 8 mM TRIS-acetate, 5 mM Mg acetate, 0.1 mM EDTA, pH 7.5 and buffer B was 8 mM TRIS-acetate, 5 mM Mg acetate, 0.1 mM EDTA, 1 M Na acetate, pH 7.5. Supernatants were loaded onto the column at 1 mL per minute, followed by a wash with 60 mL buffer A at 1 mL per minute. A gradient was run from 0-15% buffer B in 60 mL, 15-50% buffer B in 60 mL, and 50-100% buffer B in 16 mL. During the gradient 1.5 mL fractions were collected.

[14] = target: novel cGMP-specific PDE peak B from SW480 cells (Homo sapiens, UniProt O00408); test: cGMP hydrolysis inhibition, novel PDE peak B (Section IA) from SW480; format: biochemical
PC-3 = test: Growth inhibition, neutral red assay, PC-3; format: cell-based, human; conditions: Homo sapiens, PC-3; neutral red assay (Schmid et al.); read-out: IC50 (μM), Human Prostate Carcinoma PC3
Description: (§1) Compound I's activity is not confined to activity against colon cancer cell lines or animal models of colon cancer. It has a broad range of anti-neoplastic effects in various neoplastic cell lines. Various types of human cancer cell lines were propagated under sterile conditions in RPMI 1640 medium with 10% fetal bovine serum, 2 mM L-glutamine and sodium bicarbonate. To determine growth inhibitory effects of Compound I, cells were seeded in 96-well plates at a density of 1000 cells per well. Twenty-four hours after plating, the cells were dosed with various concentrations of the free base of Compound I solubilized in DMSO (final concentration 0.1%). The effect of the drug on tumor cell growth was determined using the neutral red cytotoxicity assay following five days of continuous treatment. Neutral red is a dye that is selectively taken up by viable cells by an ATP-dependent transport mechanism.

Colo 205 = test: Growth inhibition, neutral red assay, Colo 205; format: cell-based, human; conditions: Homo sapiens, COLO 205; neutral red assay (Schmid et al.)
Description: as §1

T3 sequence (O00408 whole entry): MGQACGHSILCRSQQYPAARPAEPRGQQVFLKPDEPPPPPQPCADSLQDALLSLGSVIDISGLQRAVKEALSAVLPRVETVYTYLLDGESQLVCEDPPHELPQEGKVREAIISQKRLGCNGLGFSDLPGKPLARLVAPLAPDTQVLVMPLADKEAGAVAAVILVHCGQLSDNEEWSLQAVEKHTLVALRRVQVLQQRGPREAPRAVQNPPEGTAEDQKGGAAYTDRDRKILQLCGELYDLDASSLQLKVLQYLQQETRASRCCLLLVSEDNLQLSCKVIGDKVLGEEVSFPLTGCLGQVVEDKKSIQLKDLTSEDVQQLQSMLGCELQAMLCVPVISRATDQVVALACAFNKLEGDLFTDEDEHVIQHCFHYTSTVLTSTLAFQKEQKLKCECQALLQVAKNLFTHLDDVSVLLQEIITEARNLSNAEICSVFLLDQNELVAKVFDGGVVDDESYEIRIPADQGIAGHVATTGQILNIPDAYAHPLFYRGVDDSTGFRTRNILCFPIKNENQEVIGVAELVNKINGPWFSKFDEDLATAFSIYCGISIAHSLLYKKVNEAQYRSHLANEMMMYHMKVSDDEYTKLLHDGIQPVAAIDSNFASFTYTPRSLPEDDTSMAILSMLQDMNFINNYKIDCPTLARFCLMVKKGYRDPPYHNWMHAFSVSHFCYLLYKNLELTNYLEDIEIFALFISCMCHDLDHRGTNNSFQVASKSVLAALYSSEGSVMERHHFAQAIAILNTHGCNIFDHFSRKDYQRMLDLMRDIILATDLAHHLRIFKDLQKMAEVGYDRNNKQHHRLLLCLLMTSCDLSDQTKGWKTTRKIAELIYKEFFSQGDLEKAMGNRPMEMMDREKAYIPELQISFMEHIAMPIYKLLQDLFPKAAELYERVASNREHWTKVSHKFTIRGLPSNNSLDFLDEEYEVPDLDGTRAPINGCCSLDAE
Chain of novel cGMP-specific PDE peak B from SW480 cells (Homo sapiens) (O00408 2-941): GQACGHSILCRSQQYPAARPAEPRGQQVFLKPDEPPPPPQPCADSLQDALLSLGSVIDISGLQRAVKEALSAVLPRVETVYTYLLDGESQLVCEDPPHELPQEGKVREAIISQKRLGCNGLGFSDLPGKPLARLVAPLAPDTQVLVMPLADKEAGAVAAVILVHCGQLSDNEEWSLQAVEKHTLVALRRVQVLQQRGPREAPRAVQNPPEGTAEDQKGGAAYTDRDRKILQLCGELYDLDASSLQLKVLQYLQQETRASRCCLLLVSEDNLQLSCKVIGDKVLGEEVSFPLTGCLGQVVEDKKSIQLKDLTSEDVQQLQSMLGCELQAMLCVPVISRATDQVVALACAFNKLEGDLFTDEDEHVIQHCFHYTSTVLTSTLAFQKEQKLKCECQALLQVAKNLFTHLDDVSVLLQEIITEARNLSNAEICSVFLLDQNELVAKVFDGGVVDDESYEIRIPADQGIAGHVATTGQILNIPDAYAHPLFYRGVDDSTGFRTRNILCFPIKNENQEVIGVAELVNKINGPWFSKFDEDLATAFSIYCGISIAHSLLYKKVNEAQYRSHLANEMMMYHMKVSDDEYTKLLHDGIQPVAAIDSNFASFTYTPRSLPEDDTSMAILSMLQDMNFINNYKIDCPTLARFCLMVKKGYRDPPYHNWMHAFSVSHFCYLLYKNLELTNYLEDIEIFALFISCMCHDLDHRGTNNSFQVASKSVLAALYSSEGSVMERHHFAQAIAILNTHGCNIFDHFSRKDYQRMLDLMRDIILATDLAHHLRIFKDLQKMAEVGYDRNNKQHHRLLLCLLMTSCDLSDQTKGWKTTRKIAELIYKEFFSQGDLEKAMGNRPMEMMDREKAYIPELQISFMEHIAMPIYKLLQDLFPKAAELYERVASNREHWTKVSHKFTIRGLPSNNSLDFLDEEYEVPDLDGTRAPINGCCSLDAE
Chain of novel cGMP-specific PDE peak B from SW480 cells (O00408 2-941): as above

| SMILES | COX Inhibition [4] | inhibition at 100 µM [4] [%] | IC50 [5] [µM] | IC50 [12] [µM] | Growth-inhibitory activity, % Inhibition at 100 μM [3] [%] | cGMP PDE inhibitory activity, % Inhibition at 10 μM [5] [%] | PDE Inhibition [5] | COX-I inhibition (FIG. 5) [4] | competition with cGMP in binding of GST-cGB-PDE5 [11] | also measured |
| --- | --- | --- | --- | --- | --- | --- | --- | --- | --- | --- |
| CCN(CC)CCSC12CC(=O)OC1(C)/C(=C/c1ccc(S(C)(=O)=O)cc1)c1ccc(F)cc12 (racemic) [A, rac-threo-(E)-1-(N,N′-diethylaminoethanethio)-1-(butan-1′,4′-olido)-[3′,4′: 1,2]-6-fluoro-2-methyl-3-(p-methylsulfonylbenzylidene)-indan] | − |  |  |  | 68 | <25 | − |  |  | Apoptosis ([1]; qualitative activity profile): ++; Mammary Gland Organ Culture [2]: ++; Growth Inhibition ([3]; qualitative activity profile): +++; Cyclooxygenase inhibitory activity, % Inhibition at 100 μM ([4]; 100 μM): <25%; Apoptosis-inducing activity, Fold induction at 100 μM [6]: <2.0 fold |
| CCCCCC[C@@H]([C@@H](C)O)n1cnc2c(N)ncnc21 (racemic) [EHNA] |  |  |  |  |  |  |  |  |  | IC50 ([7]; cGMP hydrolysis, 0.25 μM 3H-cGMP): > 100 µM; IC50 [8]: 3.7 µM; IC50 ([9]; 2.0 μM cAMP substrate, read-out: IC50, cAMP PDE activity in Peak B): 3.8 µM; IC50 ([9]; read-out: IC50, cAMP PDE activity in Peak B with rolipram, 2.0 μM cAMP substrate, addition of 10 μM rolipram): 2.5 µM; IC50 ([9]; read-out: IC50, cGMP PDE activity in Peak B, 2 μM cGMP substrate): 1.6 µM; Apoptosis-inducing activity, Fold induction at 100 μM ([10]; 100 μM): <2.0 fold |
| COc1cc(C=C2C(C)=C(CC(=O)O)c3cc(F)ccc32)cc(OC)c1OC [Compound B, (Z)-5-Fluoro-2-methyl-1-(3,4,5-trimethoxybenzylidene)-3-acetic acid] | − | < 25 | 18 | 58 |  | <25 | +++ | neither test compound B and E significantly inhibit COX-I | do not bind to the cGMP binding sites of PDE5 | EC50 ([1]; Homo sapiens, HT-29, 48 hours): ~175 µM; fold induction at 100 µM ([10]; Homo sapiens, SW480, read-out: Apoptosis-inducing activity, Fold induction at 100 μM, 100 μM): > 2 |
| O=C(O)C1CCN(c2nc(NCc3ccc4c(c3)OCO4)c3cc(Cl)ccc3n2)CC1 [Compound E4021] |  |  |  |  | <50 |  |  |  | do not bind to the cGMP binding sites of PDE5 | IC50 ([3]; HT-29 treated for 6 days, SRB assay, read-out: Growth inhibition (IC50)): > 100 µM; sensitivity of peak B's cGMP PDE activity [13]: resistant |
| COc1cc(/C=C2/C(C)=C(CC(=O)NCc3ccccc3)c3cc(F)ccc32)cc(OC)c1OC [Compound E, (Z)-5-Fluoro-2-methyl-1-(3,4,5-trimethoxybenzylidene)-3-indenylacetamide, N-benzyl] | − | < 25 | 0.08 | > 25 |  | 75 | ++++ | neither test compound B and E significantly inhibit COX-I | do not bind to the cGMP binding sites of PDE5 | Ratio (IC50 Peak A/Peak B) [7]: 1.0; competitive (with cGMP) binding to PDE 5 (peak A) [7]: does competitively (with cGMP) bind; competitive (with cGMP) binding to PDE peak B [14]: competitively (with cGMP) binds; IC50 (PC-3): 0.9 µM; IC50 (Colo 205): 1.62 µM |
